“And” between values parts separate entries of the source, which are not always exact repeats. Equal entries are not always repeated.

Assay [1] concerns the target T1, 14-3-3β/Foxo3 peptide (Homo sapiens, UniProt P31946).
T1 construct: His6 (cleaved yes); made in house
T1 sequence (P31946 1-246): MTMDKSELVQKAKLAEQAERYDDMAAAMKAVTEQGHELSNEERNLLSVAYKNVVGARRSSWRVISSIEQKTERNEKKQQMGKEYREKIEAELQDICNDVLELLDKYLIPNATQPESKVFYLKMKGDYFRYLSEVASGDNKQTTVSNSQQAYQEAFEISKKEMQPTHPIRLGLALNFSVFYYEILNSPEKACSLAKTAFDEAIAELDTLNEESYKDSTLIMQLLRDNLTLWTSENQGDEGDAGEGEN
The assay can be described thus: FP assay of 14-3-3 partner protein peptide, Foxo3. The assay is classed as binding. The following applies: CY007424 100 μM. On the procedure:
The FITC-labeled peptides were dissolved in FP buffer (10 mM HEPES pH 7.4, 150 mM NaCl, 0.1% Tween20, 1 mg/mL BSA) to a final concentration of 100 nM or 10 nM. For the dose-response assays, a 14-3-3β concentration of 10 μM was used while titrating the compounds in a two-times dilution series and, for the other assays, a dilution series of 14-3-3β was made with constant concentration of compound. The dilution series were made in 384 Corning Black Round Bottom well plates and their polarization was measured with a Tecan Infinite F500 plate reader (ex. = 485 nm, em. = 535 nm). The method of fitting of the curves was: “log(agonist) vs. response – Variable slope (four parameters)” from GraphPad Prism. The equation is Y = Bottom + (Top-Bottom)/(1 + 10^((LogEC50-X)*HillSlope)).
Supplementary Figure 2. Stabilization of the interaction between 14-3-3β and a collection of different 14-3-3 partner protein peptides by CY00742 4. […] Background polarization was subtracted from all values, n=3 technical replicates. Source data are provided as a Source Data file.
(1 picture or pasted object on this page, not shown here)

Assay [2] addresses T2, F508del-CFTR in primary CFBE cells (Homo sapiens, UniProt P13569, DEL508-508).
T2 construct: endogenous in cells; host or cells: primary CFBE cells, air-liquid interface culture
The assay can be described thus: Ussing chamber assay (short-circuit current). It counts as cell-based. Also on record: short-circuit current after stimulation by forskolin and genistein: unit not given here. The following applies: 18 h. Here is the method:
Twelve (12) validated hit compounds from the initial screening and focused validation library were tested for their effect on F508del-CFTR trafficking. Baby hamster kidney (BHK) cells expressing 3HA-tagged F508del-CFTR were treated for 24 h with 10 μM compound. After fixation of the cells, a combination of mouse monoclonal anti-HA antibody and anti-mouse IgG conjugated with FITC was used to detect F508del-CFTR that had trafficked to the plasma membrane as described previously. […] Additionally, a fluorescence imaging plate reader (FLIPR) Membrane Potential (FMP) assay was performed. This assay measures real-time membrane potential changes associated with ion channel activation and ion transporter proteins. F508del-CFTR expressing BHK cells were incubated for 24 h with 20 μM compound before treatment with the potentiator genistein, FMP dye, and activator forskolin. The fluorescence intensity is thus a measure for the function of the CFTR protein in the plasma membrane of these cells. The F508del-CFTR corrector VX-809 (lumacaftor) and the triple combination Trikafta® were used as positive controls in this assay. […] Another cellular assay was performed with the Ussing Chamber, which detects and quantifies transport of ions across epithelial tissue. F508del-CFTR expressing cystic fibrosis epithelial (CFBE) cells were treated for 18 h with 20 μM CY007424. After forskolin and genistein stimulation, the short-circuit current of the cells was measured. […]

Assay [3] deals with T3, (Homo sapiens, UniProt P13569+P31946).
T3 construct: His6 (cleaved yes); made in house; peptide synthetic
The assay can be described thus: FP assay, 14-3-3β titration at constant compound concentration (apparent KD). The following applies: FC 100 uM. The assay is classed as binding.

T3 sequence (P13569 747-774 limits assumed, one chain of several): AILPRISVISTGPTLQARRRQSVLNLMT
T2 sequence (P13569 with tags, fused parts or gaps DEL508-508): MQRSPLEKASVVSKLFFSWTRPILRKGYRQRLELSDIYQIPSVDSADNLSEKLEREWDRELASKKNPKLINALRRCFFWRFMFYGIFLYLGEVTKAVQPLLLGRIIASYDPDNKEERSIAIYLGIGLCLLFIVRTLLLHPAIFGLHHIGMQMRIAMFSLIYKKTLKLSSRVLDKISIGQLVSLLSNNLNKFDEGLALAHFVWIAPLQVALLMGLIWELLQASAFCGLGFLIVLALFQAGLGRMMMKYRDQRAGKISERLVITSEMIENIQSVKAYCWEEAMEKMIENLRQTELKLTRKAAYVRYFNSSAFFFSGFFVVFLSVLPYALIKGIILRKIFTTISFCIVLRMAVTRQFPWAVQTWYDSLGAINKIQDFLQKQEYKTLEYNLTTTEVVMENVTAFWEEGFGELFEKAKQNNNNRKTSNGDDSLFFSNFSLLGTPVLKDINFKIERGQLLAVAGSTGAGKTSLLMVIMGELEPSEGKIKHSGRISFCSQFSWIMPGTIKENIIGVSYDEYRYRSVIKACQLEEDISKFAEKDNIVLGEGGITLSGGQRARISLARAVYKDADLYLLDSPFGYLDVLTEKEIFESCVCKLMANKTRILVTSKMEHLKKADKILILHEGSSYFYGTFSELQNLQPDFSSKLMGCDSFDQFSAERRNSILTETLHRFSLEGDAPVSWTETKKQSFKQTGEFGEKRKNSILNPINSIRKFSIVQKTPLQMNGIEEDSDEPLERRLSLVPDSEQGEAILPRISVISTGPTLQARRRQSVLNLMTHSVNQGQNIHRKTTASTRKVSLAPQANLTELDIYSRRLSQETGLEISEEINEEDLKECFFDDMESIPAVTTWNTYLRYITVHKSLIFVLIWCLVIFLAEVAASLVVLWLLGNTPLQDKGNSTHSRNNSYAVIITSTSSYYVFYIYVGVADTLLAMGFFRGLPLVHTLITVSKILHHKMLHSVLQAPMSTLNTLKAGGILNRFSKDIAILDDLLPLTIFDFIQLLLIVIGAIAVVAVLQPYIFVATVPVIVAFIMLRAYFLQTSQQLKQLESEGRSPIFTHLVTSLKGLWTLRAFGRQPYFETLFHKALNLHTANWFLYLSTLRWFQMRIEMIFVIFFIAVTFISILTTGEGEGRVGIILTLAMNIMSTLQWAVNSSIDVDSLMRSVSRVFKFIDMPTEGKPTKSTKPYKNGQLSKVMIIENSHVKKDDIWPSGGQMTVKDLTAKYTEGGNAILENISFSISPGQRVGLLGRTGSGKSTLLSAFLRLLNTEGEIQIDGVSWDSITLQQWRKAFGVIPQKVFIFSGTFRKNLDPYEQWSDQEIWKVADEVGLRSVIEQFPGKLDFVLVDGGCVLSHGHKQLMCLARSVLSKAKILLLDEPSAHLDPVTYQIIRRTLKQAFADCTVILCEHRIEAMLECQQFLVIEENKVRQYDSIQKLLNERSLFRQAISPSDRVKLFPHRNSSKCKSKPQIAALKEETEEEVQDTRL

Turning to `N=C(N)NCCCC1NCc2ccccc2Sc2ccccc2CNC(=O)C(Cc2ccc(O)cc2)NC(=O)C(CCCN)NC1=O` (stereo not shown) [CY007424], the FP signal is 0.3333 in assay [1] (14-3-3β 3.8147e-9 M); 4.333 and 3.333 in assay [1] (14-3-3β 3.05176e-8 M); 7.333 and 6.333 in assay [1] (14-3-3β 6.10352e-8 M); 14.3333 and 19.3333 and 15.3333 in assay [1] (14-3-3β 1.2207e-7 M); 27.3333 and 29.3333 and 28.3333 in assay [1] (14-3-3β 2.44141e-7 M); 45.3333 and 46.3333 and 43.3333 in assay [1] (14-3-3β 4.88281e-7 M). In addition, the FP signal was 62.3333 and 55.3333 in assay [1] (14-3-3β 9.76563e-7 M); 71.3333 and 70.3333 in assay [1] (14-3-3β 1.95313e-6 M); 88.3333 and 86.3333 and 85.3333 in assay [1] (14-3-3β 3.90625e-6 M); 104.333 and 105.333 and 107.333 in assay [1] (14-3-3β 7.8125e-6 M); 129.333 and 126.333 and 125.333 in assay [1] (14-3-3β 1.5625e-5 M); 145.333 and 149.333 and 146.333 in assay [1] (14-3-3β 3.125e-5 M). Besides, the FP signal in assay [1] (14-3-3β 6.25e-5 M) is 167.333 and 166.333; in assay [1] (14-3-3β 0.000125 M), 181.333 and 182.333 and 185.333; in assay [1] (14-3-3β 0.00025 M) it was 195.333 and 193.333 and 196.333. For the same molecule, the “short-circuit current after stimulation by forskolin and genistein” value in assay [2] (20 μM CY07424, 1 μM VX-809, biological replicates) is 1.424 and 1.182 and 1.788 (2×) and 1.697 and 2.091. Also, the “conductance (short-circuit current) in words” value in assay [2] (20 μM, forskolin and genistein stimulation) is “higher conductance than the DMSO control”.

Consider `C=CC(C)(C)OC[C@H]1O[C@H](O[C@@H]2C3=C([C@H](C)COC(C)=O)C[C@H](O)[C@]3(C)/C=C3/[C@@H](COC)CC[C@H]3[C@@H](C)[C@H]2O)[C@H](O)[C@@H](OC(C)=O)[C@@H]1O` [FC-A, fusicoccin A, reference compound], for which, in assay [3] (average of no 14-3-3 wells), the “Polarization, Everage no 14-3-3” value was found to be 22.00. Besides, in assay [3] (no 14-3-3, peptide 100 nM, replicates, listed as FC), the “Polarization, no 14-3-3” value is 23 and 21 and 22.

Values taken from paper PMC9226124, “Macrocycle-stabilization of its interaction with 14-3-3 increases plasma membrane localization and activity of CFTR” (Nature Communications, 2022).
